What is called IC50 is the concentration that gives 50% inhibition. A low value points to inhibition by little substance. By DC50 is commonly meant the midpoint of the concentration-degradation curve. The low end stands for a more potent degrader, the high end for a less potent degrader. Broadly, the Dmax is the greatest extent of degradation seen. A high value points to deep degradation.

Assay [1] deals with KRAS G12D mutant human lung cancer cell A427. The assay can be described thus: 3D cell proliferation inhibition assay, A427. It counts as cell-based. The following applies: A-427, 168 h, A427, 7 days, CTG, numeric values. The essentials:
(§1)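 Cells were seeded at 5×10^2 cells/well in low-adsorption plates with compound (10000–0.026 nM final, 0.2% DMSO) and grown for 7 days at 37 °C, 5% CO2. Viability was read by CTG luminescence after 60 min at room temperature. IC50 came from log concentration–inhibition curve fits, normalised to DMSO and medium-only controls.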

Assay [2] has as its target T1, KRAS-G12D (Homo sapiens, UniProt P01116, G12D).
T1 construct: endogenous in cells; host or cells: A-427 (ATCC), AGS, AsPc-1, Panc 04.03
The assay can be described thus: KRAS-G12D degradation assay (Western Blot), A-427 cells. It counts as cell-based. The following applies: A427 cells, 24 h, numeric values; for Dmax: A-427. The essentials:
(§2)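 Each KRAS G12D mutant line (A-427, AGS, AsPc-1, Panc 04.03) was seeded at 5×10^5 cells/well and treated 24 h at 37 °C with 0.03–3000 nM compound (final DMSO 0.25%). KRAS in lysates was measured by Western blot, normalized to β-actin and compared with controls, giving DC50 and Dmax from curve fits.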
In general terms: Immunoblotting shows a protein as a band on a membrane.

Assay [3] concerns KRAS G12D mutant human pancreatic cancer cell Panc 04.03. Kind of assay: 3D cell proliferation inhibition assay, Panc 04.03. It counts as cell-based. The following applies: 168 h, Panc 04.03, 7 days, CTG, numeric values. The essentials:
as §1

In assay [4] the target is T1, KRAS-G12D. The assay can be described thus: KRAS-G12D degradation assay (Western Blot), Panc 04.03 cells. In kind it is cell-based. The following applies: 24 h. The method, then: (§3) The degradation effects of the compounds on KRAS-G12D were investigated on KRAS G12D mutant human lung cancer cell A-427 (ATCC), KRAS G12D mutant human gastric cancer cell AGS, KRAS G12D mutant human metastatic pancreatic cancer cell AsPc-1, and KRAS G12D mutant human pancreatic adenocarcinoma cell Panc 04.03. The specific procedures were as follows: 0.95 mL of cells were seeded into each well of a 24-well cell culture plate to achieve a cell density of 5×10^5 cells/well; and the cell plate was incubated in an incubator at 37° C. with 5% CO2 overnight. Then 50 μL of the compound solution after dilution was added to each of the wells with the corresponding cells, so that the final concentration of the compound was in a range of 0.03-3000 nM. The final concentration of DMSO was 0.25%. After the compounds were added, the cell plate was incubated in the incubator at 37° C. with 5% CO2 for 24 h. The culture medium in the 24-well cell culture plate was removed, and the plate was washed twice with 1×PBS (KeyGEN). 120 μL of RIPA (strong) lysis buffer (Beyotime) supplemented with 1 mM phenylmethylsulfonyl fluoride, a protease inhibitor mixture (Beyotime), and a protease phosphatase inhibitor mixture (Beyotime) was added to lyse adherent A-427 cells at the bottom of the cell culture plate. After the plate was left to stand on ice for 30 min, the protein lysate in each well was transferred to a 1.5 mL centrifuge tube and centrifuged at 15000 g for 20 min at 4° C. The cell lysate supernatants after centrifugation were cryopreserved in a refrigerator at −80° C. for later use.
(§4) After the samples of the cell lysate supernatants that had been prepared were thawed from the refrigerator at −80° C., the total protein concentrations of the cell lysates were determined using a BCA protein quantification kit (Tiangen). The total protein concentrations of the samples were then adjusted to 0.5 μg/μL with PBS and 5×SDS-PAGE protein loading buffer (Beyotime), and the samples were incubated in a water bath at 100° C. for 15 min. The samples were then incubated in an ice bath for 5 min and centrifuged at 14000 g for 1 min at 4° C., and the supernatants were mixed well as loading samples for the Western Blot assay. The samples were loaded into wells of a 10% precast gel (KeyGEN) with a loading volume of 10 μL (total protein: 5 μg), a sufficient Tris-MOPS-SDS running buffer (Adamas) was added, and then electrophoresis was performed at a constant voltage of 120 V for 55 min. After the electrophoresis, the proteins on the gel were transferred to PVDF membranes at a constant current of 250 mA for 55 min. After the membrane transfer, the PVDF membranes were incubated in 1× Quick Block blocking buffer (Beyotime) at room temperature for 30 min. After the blocking, the PVDF membranes were separately incubated at 4° C. overnight with the KRAS antibody (Abcam) diluted in a ratio of 1:1000 and the […] antibody (Abcam) diluted in a ratio of 1:2000 in 5% BSA as the diluent, and then washed with 1×TBST buffer (2.4 g of Tris, 8.8 g of NaCl, 1.5 mL of Tween 20, with pH adjusted to 7.4, with the volume brought to 1 L) 3 times for 10 min/time. The membranes were incubated with a secondary antibody (Abcam) diluted in 5% BSA at room temperature for 2 h, and then washed with 1×TBST buffer 3 times for 10 min/time. Finally, the membranes were incubated with Clarity Western ECL Substrate (BIO-RAD) for 5 min for luminescence and color development, and a ChemiScope 6200 Touch chemiluminescence imaging system (Clinx) was used for color development and protein mapping. Gray value analysis of the protein maps was performed using the chemiluminescence analysis software (Clinx). The gray correction value for each sample was calculated using the formula: gray correction value=(gray value of target protein/gray value of corresponding internal reference)×10^3. Then degradation rates were calculated by comparison with the gray correction value of the control group. […]

In assay [5] the test system is KRAS G12D mutant human metastatic pancreatic cancer cell AsPc-1. The assay can be described thus: 3D cell proliferation inhibition assay, AsPc-1. In kind it is cell-based. The following applies: ASPC1, 168 h, AsPc-1, 7 days, CTG, numeric values. A digest of the protocol:
as §1

The target of assay [6] is T1, KRAS-G12D. The assay can be described thus: KRAS-G12D degradation assay (Western Blot), AGS cells. It counts as cell-based. The following applies: 24 h. The method, then:
as §3, §4

Assay [7] relates to KRAS G12D mutant human gastric cancer cell AGS. The assay can be described thus: 3D cell proliferation inhibition assay, AGS. It counts as cell-based. The following applies: 168 h, 7 days, CTG, numeric values. The essentials: as §1
Assay [8] has as its target T1, KRAS-G12D. The assay can be described thus: KRAS-G12D degradation assay (Western Blot), AsPc-1 cells. It counts as cell-based. The following applies: for DC50: 24 h; for Dmax: ASPC1, 24 h. The essentials: as §2
The subject of assay [9] is KRAS G12D mutant human pancreatic cancer cell HPAC. Kind of assay: 3D cell proliferation inhibition assay, HPAC. In kind it is cell-based. The following applies: 168 h, 7 days, CTG. A digest of the protocol:
as §1

The test system of assay [10] is KRAS-G12D mutant cells. The following applies: KRAS-G12D mutant cells versus wild-type tumor cells; cited from earlier work.
For assay [11], the system named is xenograft tumor models of both pancreatic cancer and colorectal cancer. The following applies: cited from earlier work.

T1 sequence (P01116 1-188 isoform P01116-2 G12D): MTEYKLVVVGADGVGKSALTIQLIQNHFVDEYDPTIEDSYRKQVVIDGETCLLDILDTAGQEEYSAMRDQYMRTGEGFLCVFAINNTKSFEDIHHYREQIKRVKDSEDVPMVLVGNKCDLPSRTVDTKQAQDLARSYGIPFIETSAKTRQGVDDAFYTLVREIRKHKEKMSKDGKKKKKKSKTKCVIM

As to `C#Cc1cccc2cc(O)cc(-c3ccc4c(N5CC6CCC(C5)N6)nc(OCC5(CN6CCN(CC7CCC8(CC7)CCN(C(=O)c7ccc(C)c(N9CCC(=O)NC9=O)c7)CC8)CC6)CC5)nc4c3F)c12` [Example 77, 1-(5-(9-((4-((1-(((4-(3,8-diazabicyclo[3.2.1]octan-3-yl)-7-(8-ethynyl-3-hydroxynaphthalen-1-yl)-8-fluoroquinazolin-2-yl)oxy)methyl)cyclopropyl)methyl)piperazin-1-yl)methyl)-3-azaspiro[5.5]undecane-3-carbonyl)-2-methylphenyl)dihydropyrimidine-2,4(1H,3H)-dione], the IC50 in assay [1] amounted to 17.8 nM; in assay [3], 31.5 nM; in [5], 6.75 nM; in assay [7], 8.9 nM; in assay [9], 9.54 nM. The DC50 in assay [2] is 1.76 nM; in assay [4] it was 26.2 nM; in [6], 1.47 nM; in assay [8], 13.2 nM. Also, the greatest degradation seen (Dmax) turned out to be 94.5% in assay [2], 98.5% in assay [4], 100% in [6] and 98.2% in [8].

Turning to `C#Cc1cccc2cc(O)cc(-c3ccc4c(N5CC6CCC(C5)N6)nc(OCC5(CN6CCN(CC7CCC8(CC7)CCN(C(=O)c7ccc(Cl)c(N9CCC(=O)NC9=O)c7)CC8)CC6)CC5)nc4c3F)c12` [Example 78, 1-(5-(9-((4-((1-(((4-(3,8-diazabicyclo[3.2.1]octan-3-yl)-7-(8-ethynyl-3-hydroxynaphthalen-1-yl)-8-fluoroquinazolin-2-yl)oxy)methyl)cyclopropyl)methyl)piperazin-1-yl)methyl)-3-azaspiro[5.5]undecane-3-carbonyl)-2-chlorophenyl)dihydropyrimidine-2,4(1H,3H)-dione], the IC50 stood at 16.3 nM in [1]; 37.9 nM in assay [3]; 17 nM in assay [5]; 9.25 nM in [7]; 18.7 nM in assay [9]. Moreover, the DC50 in assay [2] was 10.1 nM; in assay [4], 16.3 nM; in [6] it was 28.9 nM; in [8] it was 23.7 nM. In addition, the maximal degradation (Dmax) is 70.2% in assay [2], 100% in [4], 92.6% in [6] and 100% in [8].

As for `C#Cc1cccc2cc(O)cc(-c3ncc4c(N5CC6CCC(C5)N6)nc(OCC5(CN6CCN(CC7CCC8(CC7)CCN(C(=O)c7ccc(OC)c(N9CCC(=O)NC9=O)c7)CC8)CC6)CC5)nc4c3F)c12` [Example 82, 1-(5-(9-((4-((1-(((4-(3,8-diazabicyclo[3.2.1]octan-3-yl)-7-(8-ethynyl-3-hydroxynaphthalen-1-yl)-8-fluoropyrido[4,3-d]pyrimidin-2-yl)oxy)methyl)cyclopropyl)methyl)piperazin-1-yl)methyl)-3-azaspiro[5.5]undecane-3-carbonyl)-2-methoxyphenyl)dihydropyrimidine-2,4(1H,3H)-dione], the IC50 in assay [1] came out at 21.8 nM; in assay [3], 14.1 nM; in assay [5] it was 4.95 nM; in assay [7] it was 5.78 nM; in assay [9] it was 4.15 nM. Also, the DC50 in assay [2] was determined as 1.21 nM; in assay [4], 6.74 nM; in [6] it was 3.84 nM; in [8], 12.6 nM. Moreover, the Dmax in [2] was found to be 99%; in [4] it was 100%; in assay [6], 97.7%; in [8] it was 93.7%.

For `C#Cc1c(F)ccc2cc(O)cc(-c3ncc4c(N5CC6CCC(C5)N6)nc(OC[C@@]56CCCN5C[C@H](F)C6)nc4c3F)c12` [MRTX1133], in [10], the specificity result was “more than 1000 times”. In addition, the “inhibition in xenograft tumor models” value in [11] was “Dose-dependent inhibition”.

The record behind these values is US20260166159A1, “KRAS G12D DEGRADATION AGENT, AND PREPARATION METHOD AND USE THEREFOR” (LEADINGTAC PHARMACEUTICAL (SHAOXING) CO., LTD., priority 2022, published 2026).
